Results published in patent US20060111335A1, “Photoactivated anti-viral and anti-cancer agent” (priority 2002, published 2006).

Tests used:
φX-174 plasmid DNA = assay: Photonicking of φX-174 plasmid DNA, gel electrophoresis; assay type: biochemical
Method: Photolysis with φX-174 Plasmid DNA. Metal complex solutions (with or without quenchers) were saturated with oxygen or argon prior to irradiation. The solutions were further degassed after being mixed with the plasmid. The final solution concentrations were: DPPZPHEN ([…]), φX-174 plasmid DNA (205 μM in base pairs), superoxide dismutase (25 μg/mL), 2-propanol (0.5 M), mannitol (6.25 mM), histidine (8 mM).
Experiments were conducted as described in Example X to evaluate the amount photonicking that occurred in the dark and upon exposure to light for 37TMBP, 56TMBP, OCTBP, BISNMe2, TMOBP, TIOBP, TPBP, BISTAP and BISDPPZ.

CT DNA = assay: Photolysis with calf thymus DNA: rhodium covalently bound to DNA; assay type: binding; details: irradiation >330 nm
Method: General. The quantity of DNA was determined by the Burton assay (Burton, Biochem. J., 62:315-322 (1956)), and its rhodium content was quantitated using flame atomic absorption spectroscopy (AA). The equilibrium constant for interaction between DPPZPHEN and CT-DNA in the dark was calculated from UV-Vis absorption titration measurements at 380 nm (Wolfe et al., Biochem., 26:6392-6396 (1987); Schemel et al., Biopolymers, 10:465-480 (1971)). Cell viability was determined using the MTT assay (Denizot et al., J. Immunol. Methods, 89:271-277 (1986)). SINV was purified on sucrose gradients as previously described (Owen et al., J. Virol., 70:2757-2763 (1996)).
Photolysis with Calf Thymus DNA (CT DNA). Solutions consisting of 1 mL aliquots of 0.58 mM DPPZPHEN and 2.7 mg/mL CT DNA were irradiated with λ>330 nm light. After irradiation, the solutions were purified by exhaustive dialysis and three cycles of precipitation and resuspension. The DNA and Rh content were determined and/or the DNA was utilized in size exclusion chromatography experiments (Mahnken et al., J. Am. Chem. Soc., 114:9253-9265 (1992)).

cell membrane = assay: Cell uptake / passage through the cell membrane
Method: OCTBP uptake by KB cells. 11 mg of OCTBP was dissolved in 40 mL of PBS buffer. The solution was vortex stirred for 5 minutes to completely dissolve the solid. The solution was sterile filtered through a 0.2μ nylon syringe filter. The concentration of the solution was determined by measuring the UV absorption at 353 nm (ε353nm=1565 M^−1cm^−1).
Once the cells were 75% confluent media was decanted from the flasks and 8 mL of drug solutions were added to three flasks and 8 mL of PBS buffer solution was added to the control flask. The flasks were incubated at 37° C. for 15, 30 and 45 minutes. Control flask was incubated for 45 minutes. When the flasks were removed, they were washed with 6×10 mL of PBS buffer solution. All the liquid was carefully decanted from the flasks. 1 mL of lysing buffer (1% triton X-100) was added to each of the four flasks. The walls of the flasks were rinsed using disposable pipettes. Once all the contents of the flasks were placed into a 1.5 mL disposable centrifuge tubes (each flask yielded ˜1.2 mL), the tubes were centrifuged at 6000 rpm and at 4° C. for 30 minutes on the Fisher Model 59V high-speed centrifuge. BCA Assay was done to establish the amount of cells in each flask.
Rh content of each flask was determined using an inductively coupled plasma (ICP) instrument (AtomScan16, Thermo Elemental, Franklin, Mass.). From each centrifuge tube 1 mL was pipetted and 370 μL of concentrated HCl was added to form a 10% solution. The samples were heated in a hot water bath at 70° C. for 30 minutes. The samples were centrifuged again and the supernatant liquid was diluted to 8 mL by adding nano-pure water. The samples were analyzed for Rh content by ICP.

SINV genomic RNA = assay: Immunofluorescence assay for SINV capsid protein translated from irradiated viral RNA in BHK cells; assay type: cell-based, Sindbis virus; details: RNA from virus irradiated with compound
Method: An immunofluorescence assay was also employed to detect the presence of SINV capsid protein newly translated from the irradiated viral genomic RNA. For these experiments the virus solutions had to be 10 log10 pfu/mL, which is a virus concentration 3 orders of magnitude higher than that used in the previous experiments. Also, the DPPZPHEN solutions had to be prepared in DMSO to maintain the ratio of drug to virus as in the previous experiments. […] SINV RNA from virus that had been either incubated in the dark or irradiated with DPPZPHEN was isolated and transfected into baby hamster kidney cells as described above. Following electroporation, the cells were plated on coverslips and incubated at 37° C. for 12 hours. The cells on the coverslips were then fixed with methanol for 15 minutes and washed twice with 1×PBS buffer. They were then incubated with anti-CP (SINV) polyclonal antibody (Owen et al., J. Virol., 70:2757-2763 (1996)) for 45 minutes at 37° C. After washing three times with 1×PBS buffer the cells were incubated with fluorescein-5-isothiocyanate (FITC) conjugated goat anti-rabbit secondary antibody (obtained from Kirkegaard and Perry, Gaithsburg, Md.) at 37° C. for 45 minutes. […] They were viewed under a Nikon Eclipse TE200 with a TE-FM Epi-fluorescence attachment.

SMILES: [Cl-].[Cl][Rh+]12([Cl])([N]3C=CC=c4ccc5c(c43)[N]1C=CC=5)[N]1C=CC=c3c1c1c(c4nc5ccccc5nc34)=CC=C[N]12 [DPPZPHEN, cis-dichloro(dipyrido[3,2a-2′3′c]phenazine)(1,10-phenantroline) rhodium(III) chloride]
- frank nicks / nicking of φX-174 supercoiled plasmid DNA upon irradiation (φX-174 plasmid DNA; 311 nm irradiation, Example VIII): light dose dependent
- photonicking of φX-174 plasmid DNA (φX-174 plasmid DNA; Example IX, dark and upon exposure to light): found to photonick
- protection of the DNA from photonicking by ROS quenchers or argon (φX-174 plasmid DNA; oxygen-saturated solutions with quenchers, and under argon, relative to buffered control): no significant level of protection
- bases per bound molecule of Rh (CT DNA): ~18 bases
- ability to pass through the cell membrane (cell membrane): able to pass through the cell membrane
- SINV capsid protein (CP) in transfected BHK cells (SINV genomic RNA): CP was not observed
